According to patent US20100227853A1, “INHIBITORS OF CYCLIC AMP PHOSPHODIESTERASES” (Trustees of Boston College, priority 2008, published 2010):
Where two headings read alike, the source gives them in different places.

Legend:
[1] = molecular target: T1, PDE4D2 (Homo sapiens, UniProt Q08499); test: 5FOA growth assay in fission yeast strain expressing PDE4D2; assay type: cell-based; settings: OD600 0.6; read-out: ED50 for 5FOA growth assays, PDE4D2
T1 construct: targets used in the assays are full-length proteins (as opposed to simply the catalytic domain); expressed in transfected cells; host or cells: Schizosaccharomyces pombe
Procedure: (§1) Cells were pregrown in EMM medium [MP Biomedicals (Solon, Ohio), 3% glucose, filter-sterilized to avoid carmelization, which would introduce variability into the optical density of the medium] containing from 0 mM to 2.5 mM cAMP (or either 0.5 mM or 1.0 mM cGMP). This was to repress expression of the fbp1-ura4 reporter prior to exposure of cells to 5FOA medium. Cells were grown at 30° C. to exponential phase (approximately 10^7 cells/ml). […] Starting cell concentrations ranged from 0.5×10^5 to 4×10^5 cells/ml depending on the screening strain. […] Other positive control dishes contained 5 mM cAMP in the 5FOA medium for PDEs that lack appropriate control compounds. Cultures were grown for 48 hours at 30° C., sealed in an airtight container with moist paper towels to prevent evaporation. Optical densities (OD600) of cultures were measured using a microplate reader. Bioinformatic analysis of the results to determine composite Z scores was performed as previously described (1, 3).

[2] = molecular target: PDE4B2 (Homo sapiens, UniProt Q07343); test: 5FOA growth assay in fission yeast strain expressing PDE4B2; assay type: cell-based; parameters: targets used in the assays are full-length proteins (as opposed to simply the catalytic domain); expressed in transfected cells; host or cells: Schizosaccharomyces pombe; settings: OD600 0.6
Procedure: as §1

[3] = molecular target: T1, PDE4D2; test: cAMP response in yeast strain expressing PDE4D2; assay type: cell-based
[4] = molecular target: T2, PDE4A1 (Mus musculus, UniProt O89084); test: cAMP response in yeast strain expressing PDE4A1; assay type: cell-based, Murine
T2 construct: targets used in the assays are full-length proteins (as opposed to simply the catalytic domain); expressed in transfected cells; host or cells: Schizosaccharomyces pombe, PDE gene integrated in place of cgs2
T2 sequence (O89084 1-610 isoform O89084-2): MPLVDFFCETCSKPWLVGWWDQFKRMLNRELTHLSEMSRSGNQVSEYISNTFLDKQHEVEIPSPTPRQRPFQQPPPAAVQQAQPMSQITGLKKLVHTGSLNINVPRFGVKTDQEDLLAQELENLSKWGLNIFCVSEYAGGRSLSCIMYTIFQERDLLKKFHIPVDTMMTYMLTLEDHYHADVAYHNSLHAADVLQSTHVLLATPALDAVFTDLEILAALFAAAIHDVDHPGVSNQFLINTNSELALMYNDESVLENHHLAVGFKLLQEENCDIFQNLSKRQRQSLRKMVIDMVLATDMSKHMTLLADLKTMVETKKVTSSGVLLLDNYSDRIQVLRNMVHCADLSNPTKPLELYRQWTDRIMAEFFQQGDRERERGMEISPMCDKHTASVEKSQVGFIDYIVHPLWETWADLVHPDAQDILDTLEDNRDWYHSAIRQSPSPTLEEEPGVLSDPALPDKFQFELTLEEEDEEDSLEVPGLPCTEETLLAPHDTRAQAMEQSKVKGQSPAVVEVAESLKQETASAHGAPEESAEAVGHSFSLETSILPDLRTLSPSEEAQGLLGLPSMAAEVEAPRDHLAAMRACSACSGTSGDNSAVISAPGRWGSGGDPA
Source text: (§2) Values represent the average and SD of two or three independent experiments. […] The strains used are as in FIG. 5A, together with strain CHP1141 (PDE8A). Values represent the average and SD of two or three independent experiments.
(§3) Thus, PDE inhibition can be indirectly quantitated by measuring the effect of a compound on cAMP levels in target yeast strains.

[5] = test system: U937 cells; test: TNF alpha release by LPS-treated U937 cells; assay type: cell-based; settings: for TNF alpha, % vehicle control: 10 uM cmpd, 0 uM BC30
[6] = molecular target: T3, PDE4B3 (Mus musculus, UniProt Q8VBU5); test: cAMP response in yeast strain expressing PDE4B3; assay type: cell-based, Murine
T3 construct: targets used in the assays are full-length proteins (as opposed to simply the catalytic domain); expressed in transfected cells; host or cells: Schizosaccharomyces pombe, PDE gene integrated in place of cgs2
T3 sequence (Q8VBU5 1-721): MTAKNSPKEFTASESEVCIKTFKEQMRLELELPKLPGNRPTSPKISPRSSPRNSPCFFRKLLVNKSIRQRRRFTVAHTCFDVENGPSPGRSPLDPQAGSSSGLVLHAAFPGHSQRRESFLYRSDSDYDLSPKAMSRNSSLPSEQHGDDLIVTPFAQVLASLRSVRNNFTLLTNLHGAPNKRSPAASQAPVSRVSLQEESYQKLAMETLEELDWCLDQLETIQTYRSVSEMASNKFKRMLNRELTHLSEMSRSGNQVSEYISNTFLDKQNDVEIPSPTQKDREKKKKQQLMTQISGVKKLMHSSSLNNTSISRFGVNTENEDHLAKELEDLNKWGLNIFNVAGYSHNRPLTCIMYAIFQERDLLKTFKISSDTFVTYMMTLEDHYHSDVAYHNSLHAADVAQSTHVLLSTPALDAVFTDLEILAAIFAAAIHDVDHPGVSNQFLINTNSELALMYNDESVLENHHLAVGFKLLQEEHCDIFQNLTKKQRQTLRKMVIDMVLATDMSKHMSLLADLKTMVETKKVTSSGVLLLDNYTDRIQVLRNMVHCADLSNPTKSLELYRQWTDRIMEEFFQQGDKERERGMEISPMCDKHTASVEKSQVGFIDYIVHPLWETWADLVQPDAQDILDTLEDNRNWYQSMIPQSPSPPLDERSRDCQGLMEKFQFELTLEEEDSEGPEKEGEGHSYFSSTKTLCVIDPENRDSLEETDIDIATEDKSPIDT
Source text: as §2, §3

[7] = test system: PDE4A, PDE4B, PDE4D, PDE7A, PDE7B, PDE8A, PDE3A; test: Summary of PDE inhibitor profile; parameters: key: (1): Strong PDE7A inhibitor, weak to moderate PDE4A, 4B inhibitor; (2): Strong PDE7A and PDE4s (including PDE4D) inhibitor; (3): Strong PDE7A inhibitor; settings: overall classification, Table 18 footnotes

T1 sequence (Q08499 303-809): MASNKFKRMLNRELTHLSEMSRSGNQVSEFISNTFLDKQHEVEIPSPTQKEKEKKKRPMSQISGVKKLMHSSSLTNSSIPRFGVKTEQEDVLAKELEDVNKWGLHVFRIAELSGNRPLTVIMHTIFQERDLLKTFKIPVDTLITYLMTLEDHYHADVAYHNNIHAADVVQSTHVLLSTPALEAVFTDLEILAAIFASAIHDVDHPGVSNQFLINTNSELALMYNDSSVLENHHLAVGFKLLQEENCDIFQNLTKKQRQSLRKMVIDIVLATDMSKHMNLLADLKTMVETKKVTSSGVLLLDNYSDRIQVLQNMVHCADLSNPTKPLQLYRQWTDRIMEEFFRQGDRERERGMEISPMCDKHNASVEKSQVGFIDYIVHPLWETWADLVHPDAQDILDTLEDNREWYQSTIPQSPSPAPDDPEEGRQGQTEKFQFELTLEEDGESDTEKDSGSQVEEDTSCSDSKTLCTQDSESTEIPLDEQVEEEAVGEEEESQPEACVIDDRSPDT
Chain of PDE4B2 (Q07343 1-564 isoform Q07343-2, species assumed): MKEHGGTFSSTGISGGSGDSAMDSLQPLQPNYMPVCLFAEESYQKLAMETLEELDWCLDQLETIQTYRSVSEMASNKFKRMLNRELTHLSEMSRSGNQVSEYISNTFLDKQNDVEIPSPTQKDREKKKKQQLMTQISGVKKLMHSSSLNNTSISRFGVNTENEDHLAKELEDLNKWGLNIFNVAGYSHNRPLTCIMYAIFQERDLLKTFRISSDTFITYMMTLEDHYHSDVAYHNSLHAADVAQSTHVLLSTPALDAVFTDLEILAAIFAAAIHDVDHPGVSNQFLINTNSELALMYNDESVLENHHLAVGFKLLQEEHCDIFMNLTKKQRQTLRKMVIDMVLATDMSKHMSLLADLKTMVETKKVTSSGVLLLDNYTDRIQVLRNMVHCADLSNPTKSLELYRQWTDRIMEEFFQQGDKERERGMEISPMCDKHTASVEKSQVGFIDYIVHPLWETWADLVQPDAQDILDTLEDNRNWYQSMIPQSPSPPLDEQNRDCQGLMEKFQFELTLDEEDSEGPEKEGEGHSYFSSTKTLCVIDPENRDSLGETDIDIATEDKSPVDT

Cc1sc2ncnc(Nc3ccccc3)c2c1C [BC64]
EC50 [1]: > 200 µM | EC50 ([2]; read-out: ED50 for 5FOA growth assays, PDE4B2): > 200 µM

CCN(CC)c1ncnc2sc3c(c12)CCCC3 [BC44]
EC50 [1]: 140 µM

COC(=O)C1=C(C)N(c2ccccc2Cl)C(=O)/C1=C\c1cccs1 [Compound 27]
cAMP Response (% rolipram), 4D2 [3]: ND ND ND 11.00 ND % rolipram | cAMP Response (% rolipram), 4A1 [4]: 78.00 % rolipram | TNF alpha, % vehicle control ([5]; after 3 h.): 75.3% | TNF alpha, % vehicle control ([5]; after 20 h.): 78.3% | cAMP Response (% rolipram), 4B3 [6]: 71.00 % rolipram

Cc1ccc2c(c1)CCC1CC(=O)CC[C@]21C (stereo partly shown) [Compound 2158J12]
PDE inhibitor profile (Table 18) [7]: 2158J12 (2)

CCC1CCc2c(sc3ncnc(N4CCOCC4)c23)C1 (stereo not shown) [BC33]
EC50 ([2]; value marked (m), read-out: ED50 for 5FOA growth assays, PDE4B2 (m)): 1.7 µM

COC(=O)C1=C(C)N(C2CCCCC2)C(=O)/C1=C\c1cccs1 [Compound 22]
cAMP Response (% rolipram), 4D2 [3]: ND ND ND 34.00 ND % rolipram | cAMP Response (% rolipram), 4A1 [4]: 54.00 % rolipram | cAMP Response (% rolipram), 4B3 [6]: 51.00 % rolipram

N#Cc1sc2sc(C#N)c(-c3ccco3)c2c1N [Compound 30]
cAMP Response, 4D2 ([3]; Table 16, unit not given): ND ND ND 7.5 ND | cAMP Response, 4A1 ([4]; Table 16, unit not given): 65.7 | TNF ([5]; 3 HOURS): 3317 pg/mL | TNF, % EtOH cntrl ([5]; 3 HOURS): 68.7% | TNF ([5]; 20 HOURS): 7481 pg/mL | TNF, % EtOH cntrl ([5]; 20 HOURS): 54.7% | cAMP Response, 4B3 ([6]; Table 16, unit not given): 67

COc1ccc2c(c1)[C@@]1(C)CCC[C@](C)(CO)C1CC2 (stereo partly shown) [Compound 2067M03]
PDE inhibitor profile (Table 18) [7]: 2067M03 (1)

Cc1c(C(=O)Nc2ccc(F)cc2F)sc2ncnc(N3CCC(C)CC3)c12 [BC58]
TNF alpha reduction, conclusion in words [5]: good PDE4 inhibitor activity
